Experimental data as given in patent US20240245711A1, “A 19-NOR C3,3-DISUBSTITUTED C21-N-PYRAZOLYL STEROID FOR THE TREATMENT OF MAJOR DEPRESSIVE DISORDER” (Sage Therapeutics, Inc., priority 2021, published 2024).

System: patients with MDD and metabolic comorbidities
Assay: Post hoc analysis of the Example 1 study: patients with MDD and metabolic comorbidities
Type: in vivo, human
Method: Patients with MDD who have metabolic comorbidities face additional adverse events associated with antidepressants (e.g., weight gain, metabolic abnormalities) and often respond poorly. This example presents results from a post hoc analysis of clinical study of Example 1 in patients with MDD and metabolic comorbidities.
The clinical study of Example 1 enrolled patients with MDD, aged 18-75 years, with HAMD-17 score ≥20 and a MADRS total score ≥28 to 1 of 2 cohorts: 30 mg Cohort and 50 mg Cohort. HAMD-17 responders (≥50% reduction from baseline) at Day 15 continued in study and were assessed for retreatment eligibility.
Patients with a metabolic comorbidity were identified by the following coded terms in patient history: obesity, hyperlipidemia, hypercholesterolemia, type-2 diabetes mellitus, type-1 diabetes mellitus, glucose tolerance impaired, hypertriglyceridemia, dyslipidemia, metabolic syndrome, and/or diabetic dyslipidemia.

[1] = Day 15 of first treatment cycle, metabolic comorbidities subpopulation
[2] = metabolic comorbidities subpopulation

Q: Which results are given for C[C@@]1(O)CC[C@H]2[C@H](CC[C@@H]3[C@@H]2CC[C@]2(C)[C@@H](C(=O)Cn4cc(C#N)cn4)CC[C@@H]32)C1 [Compound (1), 1-(2-((3R,5R,8R,9R,10S,13S,14S,17S)-3-hydroxy-3,13-dimethylhexadecahydro-1H-cyclopenta[a]phenanthren-17-yl)-2-oxoethyl)-1H-pyrazole-4-carbonitrile]?
A: Patients not requiring additional treatment courses during their time in the study (161/253 who responded to and completed the first treatment cycle): 55.9%; HAMD-17 remission rate [1]: 37.1%; HAMD-17 response rate [1]: 67.3%; Mean (SD) CFB in HAMD-17 [1]: −14.8 (7.10); TEAE diarrhea [2]: 6.7%; TEAE dizziness [2]: 9.1%; TEAE dry mouth [2]: 5.5%; TEAE headache [2]: 14.2%; TEAE sedation [2]: 5.1%; TEAE somnolence [2]: 13.8%; TEAE upper respiratory infection [2]: 5.9%; TEAEs leading to discontinuation of study drug (metabolic comorbidities subpopulation (8/253)): 3.2%; TEAEs leading to withdrawal from the study (metabolic comorbidities subpopulation (11/253)): 4.3%; TEAEs leading to dose reduction (metabolic comorbidities subpopulation (19/253)): 7.5%; Share of patients with TEAEs that were mild/moderate (metabolic comorbidities subpopulation (148/167)): 88.6%; Patients with ≥1 TEAE over the study duration (metabolic comorbidities subpopulation (167/253)): 66.0%; Mean (range) number of total treatment courses (metabolic comorbidities subpopulation, first-cycle responders): 1.9 (1-5); Tolerability (patients with MDD and metabolic comorbidities): generally well tolerated
